Data reported in patent publication EP1166644A1, “Enzymatic biodegradation of halogenated compounds” (priority 2000, dated 2002).

System: baker's yeast
Experiment: Bioconversion (biodegradation) assay with baker's yeast
Format: cell-based, Saccharomyces caerevisae (baker's yeast)
Description: Biodegradation assays were carried out according to the following steps: • Step 1. Culture of microorganisms: The microorganisms studied were allowed to grow on a defined medium, in order to increase biomass and develop possible enzymatic activity. • Step 2. Bioconversion assay: The desired amount of 3-MCPD was added to the reactor, and samples were withdrawn at different reaction time to follow the kinetics of biodegradation. • Step 3. Centrifugation: Samples withdrawn from the mixture were centrifuged, the pellet was discarded and the supernatant was used for further treatment and analysis. • Step 4. Extraction of 3-MCPD: 3-MCPD was extracted from the supernatant using Extrelut columns or the Accelerated Solvent Extractor method, and partitioned into ethyl acetate. • Step 5. Preparation of samples for analysis: The organic phase was concentrated with a rotary evaporator, and transferred to a vial, containing an internal standard (3-monochloro-1-propanol (3-MCP) or 3-MCPD-d5). • Step 6. Analysis: Final detection and monitoring of substrate was accomplished by gas chromatography techniques (GC or GC-MS).
Conditioning of baker's yeast: 60g active dry baker's yeast was added to 300 g distilled water under magnetic stirring for 20 min at room temperature. The yeast cream was then centrifuged at 5000 rpm for 15 min, at 4°C (Beckman Model J2-21M Centrifuge) and supernatant was discarded. The pellet was resuspended in equivalent amount (225ml) of distilled water. The obtained yeast cream solution (pH 5.8) was then used for bioconversion assays.
Bioconversion assay: 150 g of the yeast cream solution obtained as described above was placed in a 200 ml reactor vessel equipped with an electrode and a magnetic stirrer (500 rpm). The flask was kept at 28°C using an oil bath equipped with a thermostat (Heidolph MR 3003), and pH was adjusted to the desired pH condition (pH 6.2, pH 7.0, or pH 8.2) with 2M NaOH solution.
[…] The pH was automatically maintained throughout the reaction with regular adjunction of 2M NaOH (Metrohm 691 pH-Meter, equipped with Metrohm Impulsomat 614 and Dosimat 665).
Aliquots of 6 ml were withdrawn from the reaction mixture at different incubation times and centrifuged at 3000 rpm, during 4 min, at 25°C (Beckman Model TJ6 Centrifuge). The pellet was discarded, and the supernatant absorbed onto an Extrelut 3 column or hydromatrix column (placed in the Accelerated Solvent Extractor). 3-MCPD was then partitioned into ethyl acetate, volume was reduced to 2 ml by rotary evaporation, and transferred to a 10 ml graduated tube. 1ml of the internal standard (3-MCP or 3-MCPD-d5) was added to the vial and made up to volume with ethyl acetate. Finally, the extract was dried over anhydrous sodium sulfate, and analyzed for 3-MCPD content by gas chromatography (GC or GC-MS).
The study of 3-MCPD biodegradation by baker's yeast was made by varying different parameters and measuring their influence on the yield and rate of 3-MCPD degradation. The effect of the following parameters were studied: • pH 6.2, 7.0 and 8.2 • presence of glucose in the reaction mixture • substrate stereospecificity: (R)-and (S)-enantiomers • substrate concentration: 800 ppb and 3000 ppm
The results of the biodegradation assays are reported as a percentage of conversion of 3-MCPD as function of reaction time.
Final conversion values were referred to 48h reaction time in order to compare the different biodegradation assays performed. Comparison of bioconversions after 48 h reaction time has been chosen in respect of the enzymatic nature of the reaction studied (many non-enzymatic reactions could occur in a longer time frame).
A control vial (reaction medium with substrate, but without microorganism) was run alongside the reaction. This control permitted the subtraction of the non-enzymatic conversion of 3-MCPD under the experimental conditions tested. […]

[1] = 800 ppb, pH 8.2, 28°C, without glucose
[2] = 3000 ppm, pH 6.2, 28°C, without glucose
[3] = 3000 ppm, pH 7.0, 28°C, without glucose
[4] = 3000 ppm, pH 8.2, 28°C, without glucose

SMILES	Biodegradation of 3-MCPD with baker's yeast, After 24 h [1] [%]	Biodegradation of 3-MCPD with baker's yeast, After 24 h (800 ppb, pH 8.2, 28°C, without glucose, listed as racemic 3-MCPD)	Biodegradation of 3-MCPD with baker's yeast, After 48 h [1] [%]	highest conversion (2000 ppm, pH 8.2, in the presence of glucose, after 24h reaction) [%]	Biodegradation of 3-MCPD with baker's yeast, After 24 h [2] [%]	Biodegradation of 3-MCPD with baker's yeast, After 48 h [2] [%]	Biodegradation of 3-MCPD with baker's yeast, After 24 h [3] [%]	Biodegradation of 3-MCPD with baker's yeast, After 48 h [3] [%]	Biodegradation of 3-MCPD with baker's yeast, After 24 h [4] [%]	Biodegradation of 3-MCPD with baker's yeast, After 48 h [4] [%]	Biodegradation of 3-MCPD with baker's yeast, After 48 h (3000 ppm, pH 8.2, 28°C, without glucose, listed as 3-MCPD) [%]	Biodegradation of 3-MCPD with baker's yeast, After 48 h (3000 ppm, pH 8.2, 28°C, without glucose, listed as racemic 3-MCPD)	Biodegradation of 3-MCPD with baker's yeast, After 24 h (3000 ppm, pH 8.2, + glucose) [%]	Biodegradation of 3-MCPD with baker's yeast, After 48 h (3000 ppm, pH 8.2, + glucose) [%]
OCC(O)CCl (racemic) [(R,S)-3-MCPD, 3-Monochloro-1,2-propanediol]	50	about 50%	70	60	8	12	20	35	26	45	45	about 50%	60	68
OC[C@@H](O)CCl [(R)-3-MCPD, (R)-(-)-3-monochloro-1,2-propanediol]									20	60				
OC[C@H](O)CCl [(S)-3-MCPD, (S)-(+)-3-monochloro-1,2-propanediol]									55	85				
